In patent US9744146B2, “Method for alleviating disturbance of bile acid metabolism, amino acid metabolism, and/or gut microbiota metabolism” (China Medical University, priority 2013, dated 2017):

How the values were obtained:
mouse = conditions: cited from earlier work
[1] = test system: nonalcoholic fatty liver and insulin resistance in mice induced by the high-fat-diet; assay: Liver weight, blood glucose, serum insulin and liver pathology in high-fat-diet mice; format: in vivo, C57BL6/J male mice; conditions: gallic acid 50 or 100 mg/kg orally daily, compared to the high-fat-diet group
Method: (§1) The gallic acid is purchased from Sigma, U.S.A.
(§2) In addition, to ensure experimental stability, the mice in the first and second group were given water at a volume the same as that in the third and fourth group. At the age of 16-week-old, the urine of the mice was collected, and the concentration of the blood glucose and serum insulin were measured. Then, the mice were sacrificed, and the serum was collected for the analysis of metabolic markers. The liver was weighted and photographed.

bile acid metabolism = assay: Analysis of bile acid metabolism markers (glycine, taurine) by NMR in serum and urine of high-fat-diet mice; format: in vivo, C57BL6/J male mice; conditions: gallic acid 100 mg/kg orally daily (the third group), 16-week-old
Method: as §1, §2
(§3) The collected blood and urine were analyzed by a nuclear magnetic resonance spectrum. The steps are shown as follows. • (1) Urine: The urine (500 μl), PBS (50 μl) (81:19 vol/vol, comprising 0.2 M NaHPO4 and 0.2 M NaH2PO4, pH=7.4), 10% deuteroxide, and 0.03% trimethylsilyl propionate (TSP) were mixed in a micro-centrifuge tube and centrifuged with 13000 rpm for 20 minutes at 4° C. The supernatant (500 μl) was collected and analyzed by 600 MHz nuclear magnetic resonance (NMR, Bruker AVANCE 600AV) at 25° C. The 1D NOESY FID signal was transferred to a one-dimensional NMR spectrum of graphing through Fourier transform. • (2) Blood: The serum (250 μl) and deuteroxide (350 μl) were mixed in a micro-centrifuge tube and centrifuged with 13000 rpm for 20 minutes at 4° C. The supernatant (500 μl) was collected and analyzed. The metabolites in serum were analyzed by using NMR sequence CPMG.
It has been known that the concentration of taurine and glycine can be used as markers of bile acid metabolism (see Miyazaki T, Matsuzaki Y (2012) Taurine and liver diseases: a focus on the heterogeneous protective properties of taurine. Amino Acids, which is entirely incorporated hereinto by reference). Therefore, the integrated area of the spectrum of glycine (chemical shift 3.56 ppm singlet) and the taurine (chemical shift 3.40 ppm triplet) in the blood and urine were analyzed.

amino acid metabolism = assay: Analysis of amino acid metabolism markers by NMR in serum of high-fat-diet mice; format: in vivo, C57BL6/J male mice; conditions: gallic acid 100 mg/kg orally daily (the third group)
Method: as §1, §2, §3
It has been known that the concentration of isoleucine, leucine, valine, glutamate, glutamine, tyrosine, phenylalanine, alanine, lysine, arginine and ornithine can be used as the markers of amino acid metabolism (see Rare Disease Diet Control Manual—amino acid metabolism, Foundation for Rare Disorders, pages 18, 22, 26-31, which is entirely incorporated hereinto by reference). Therefore, the integrated area of the spectrum of isoleucine (chemical shift 1.01 ppm dublet), the leucine (chemical shift 0.97 ppm triplet) and the valine (chemical shift 1.04 ppm doublet) in the serum were analyzed.

[2] = test system: gut microbiota metabolism; assay: Analysis of gut microbiota metabolism markers by NMR in serum and urine of high-fat-diet mice; format: in vivo, C57BL6/J male mice; conditions: gallic acid 100 mg/kg orally daily (the third group)
Method: as §1, §2, §3
It has been known that the concentration of isobutyric acid, butanoic acid, hippuric acid, dimethylamine and trimethylamine can be used as the markers of the gut microbiota metabolism and reflect the change of gut microbiota. Therefore, the integrated area of the spectrum of isobutyric acid, butanoic acid, hippuric acid, dimethylamine and trimethylamine in the blood and urine were analyzed.

**Q.** For `O=C(O)c1cc(O)c(O)c(O)c1` [gallic acid], which “No Observed Adverse Effect Level (NOAEL)” value (mouse) is on record?
**A.** greater than 5000 mg/kg

**Q.** And the “effect on nonalcoholic fatty liver induced by the high-fat-diet” value ([1]; FIGS. 1, 4A, 4B)?
**A.** ameliorating

**Q.** What about the “effect on insulin resistance induced by the high-fat-diet” value ([1]; FIGS. 2, 3) of the same compound?
**A.** ameliorating

**Q.** And the “glycine, integrated area of NMR spectrum” value (bile acid metabolism; serum)?
**A.** 142.91 ± 10.60 the normalized and transferred NMR signal × 10^3

**Q.** And the “glycine, integrated area of NMR spectrum” value (bile acid metabolism; urine)?
**A.** 206.51 ± 8.45 the normalized and transferred NMR signal × 10^3

**Q.** What about the “taurine, integrated area of NMR spectrum” value (bile acid metabolism; urine) of the same compound?
**A.** 489.81 ± 125.78 the normalized and transferred NMR signal × 10^3

**Q.** And the “alanine, integrated area of NMR spectrum” value (amino acid metabolism)?
**A.** 96.11 ± 6.07 the normalized and transferred NMR signal × 10^3

**Q.** What about the “arginine, integrated area of NMR spectrum” value (amino acid metabolism) of the same compound?
**A.** 30.08 ± 0.78 the normalized and transferred NMR signal × 10^3

**Q.** What about the “glutamate, integrated area of NMR spectrum” value (amino acid metabolism) of the same compound?
**A.** 39.50 ± 1.39 the normalized and transferred NMR signal × 10^3

**Q.** And the “glutamine, integrated area of NMR spectrum” value (amino acid metabolism)?
**A.** 40.61 ± 3.88 the normalized and transferred NMR signal × 10^3

**Q.** What about the “isoleucine, integrated area of NMR spectrum” value (amino acid metabolism) of the same compound?
**A.** 32.29 ± 3.25 the normalized and transferred NMR signal × 10^3

**Q.** And the “leucine, integrated area of NMR spectrum” value (amino acid metabolism)?
**A.** 109.28 ± 2.36 the normalized and transferred NMR signal × 10^3

**Q.** What about the “lysine, integrated area of NMR spectrum” value (amino acid metabolism) of the same compound?
**A.** 74.93 ± 2.24 the normalized and transferred NMR signal × 10^3

**Q.** What about the “ornithine, integrated area of NMR spectrum” value (amino acid metabolism) of the same compound?
**A.** 36.39 ± 1.45 the normalized and transferred NMR signal × 10^3

**Q.** And the “phenylalanine, integrated area of NMR spectrum” value (amino acid metabolism)?
**A.** 6.44 ± 0.39 the normalized and transferred NMR signal × 10^3

**Q.** And the “tyrosine, integrated area of NMR spectrum” value (amino acid metabolism)?
**A.** 6.78 ± 0.85 the normalized and transferred NMR signal × 10^3

**Q.** And the “valine, integrated area of NMR spectrum” value (amino acid metabolism)?
**A.** 68.26 ± 3.46 the normalized and transferred NMR signal × 10^3

**Q.** And the “isobutyric acid, integrated area of NMR spectrum” value ([2]; serum)?
**A.** 22.49 ± 1.55

**Q.** And the “butanoic acid, integrated area of NMR spectrum” value ([2]; urine)?
**A.** 187.08 ± 10.46

**Q.** What about the “dimethylamine, integrated area of NMR spectrum” value ([2]; urine) of the same compound?
**A.** 197.9 ± 9.20

**Q.** And the “hippuric acid, integrated area of NMR spectrum” value ([2]; urine)?
**A.** 10.33 ± 0.90

**Q.** What about the “trimethylamine, integrated area of NMR spectrum” value ([2]; urine) of the same compound?
**A.** 269.21 ± 76.77
